Series [1] relates to HepG2 cells. Nature of the series: LDH release cytotoxicity assay. Type of series: cell-based, human. Particulars: HepG2, 100 µM, 6 h, relative to maximum release by 1% Triton X-100. On the procedure:
Lactate dehydrogenase (LDH) is a stable cytosolic enzyme that is released upon membrane damage in apoptotic/necrotic cells. LDH activity was measured using CytoTox 96 Non-Radioactive Cytotoxicity Assay (Promega, Madison, WI, USA), in which LDH released in culture supernatants is measured with a coupled enzymatic assay, resulting in conversion of a tetrazolium salt into a red formazan product. […] After centrifugation, the supernatant was removed to an assay plate, and the LDH released from the cells into culture medium was measured. The maximal release was obtained after treating control cells with 1% Triton X-100 for 30 min at room temperature. The apoptotic/necrotic percentage was expressed using the formula: (sample value/maximal release)×100%.

The test system of series [2] is HepG2 cells. Nature of the series: DNA fragmentation (apoptotic DNA ladder). Type of series: cell-based, human. Particulars: HepG2, 100 µM, 24 h, agarose gel. As for the experimental part: HepG2 (1×10^5) cells were seeded in 24-well culture plates and were allowed to adhere overnight. […] The plates were re-incubated for another 24 h. DNA fragmentation was detected using ApoTarget Quick Apoptotic DNA Ladder Detection Kit (Invitrogen, Burlington, ON, Canada) according to the manufacturer’s protocol. The principle involves detecting the internucleosomal DNA fragments formed during apoptosis. Briefly, floating dead cells and trypsinized adherent cells were collected and centrifuged at 1,000 rpm for 10 min. After washing with diluted phosphate buffered saline, the cells were lysed with 35 µL TE lysis buffer (a kit component). To the lysate, 5 µL of Enzyme A (a kit component) was added and incubated at 37°C for 10 min. Afterwards, 5 µL of Enzyme B (a kit component) was added, gently mixed and incubated at 50°C for 30 min. The DNA was precipitated with the ammonium acetate and absolute ethanol at −20°C. After centrifugation (10 min at 12,000 rpm) and air drying, the DNA pellet was dissolved in 30 µL of DNA suspension buffer. For detecting the DNA ladder, the extracted DNA samples were run on a 1.2% agarose gel containing 0.5 µg/mL gel red in Tris-Borate-EDTA (TBE) buffer. After electrophoresis, the gel image was captured using Gel Doc 100 system (Bio-Rad, Mississauga, ON, Canada).

Series [3] deals with LNCaP prostate cancer cells. Details: method as in PMID 20714300. The note with it: 100 µM; cited from earlier work.
Another series deals with DNA topo IIα. On the set-up: method as in PMID 7769390. The note with it: cited from earlier work.
Series [4] deals with HepG2 cells. Nature of the series: Mitochondrial membrane potential (JC-1). Type of series: cell-based, human. Particulars: HepG2, 100 µM, 24 h. As for the experimental part:
HepG2 cells were seeded in a black walled clear bottom 96-well sterile flat bottom tissue culture plates (BD Biosciences, USA) at a density of 5×10^4 cells/well (100 µL) and incubated in a CO2 incubator for 24 h at 37°C. […] The staining solution JC-1 was prepared with PBS and 5 µM was added to each well. The cells were further incubated in a CO2 incubator at 37°C for 1 h. After washing the plate with PBS twice, the fluorescence was measured using a Fluostar Optima microplate reader (BMG Labtech) at 535 nm for JC-1 monomers and at 590 nm for JC-1 aggregates.

Series [5] concerns BALB-MC.E12 mouse mammary tumor cells. Details: method as in PMID 17827407. Particulars: antitumor activity study of apple polyphenols; cited from earlier work.
The conditions of series [6]: glycosylation at 2-OH; cited from earlier work.
Series [7] relates to HepG2 cells. Nature of the series: Morphologic observation under inverted phase contrast microscope. Type of series: cell-based, human. Particulars: HepG2, 100 µM, 24 h. On the procedure: After 24 h of treatment, the morphology of HepG2 cells was observed under an inverted phase contrast microscope (Nikon Eclipse E 100, Nikon, Mississauga, ON, Canada) and were captured at 400X magnification using Infinity digital microscopy camera (Lumenera corporation, Ottawa, ON, Canada).

The subject of the next series is B16 mouse melanoma cells. On the set-up: method as in PMID 17827407. The note with it: antitumor activity study of apple polyphenols; cited from earlier work.
Series [8] concerns normal human hepatocytes (HP-F). Kind of series: MTS cell viability assay, normal human hepatocytes. Type of series: cell-based. The note with it: Hepatocyte, 24 h. Summed up:
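MTS read-out (OD490, 3 h with PMS) after 3, 6, 12, 18 or 24 h exposure to 0.1–100 µM compound; HepG2 and MDA-MB-231 at 5×10^3 cells/well, human and rat hepatocytes at 1×10^4 cells/well, triplicate.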

SMILES strings stand for the structures.

`O=C(CCc1ccc(O)cc1)c1c(O)cc(O)cc1O` [Phloretin] gave an LDH release in the series with HepG2 cells [1] of 7.9±0.5%. In addition, the “internucleosomal DNA fragmentation” value with HepG2 cells [2] is listed as “only intact genomic DNA”. The “TRAIL-induced apoptosis and cytotoxicity” value in series [3] is “augmented”. In addition, the “DNA topo IIα unknotting activity” value in the series with DNA topo IIα is given as “inhibit DNA topo IIα unknotting activity”. For the same compound, the mitochondrial membrane potential result with HepG2 cells [4] is “significant (P<0.05) reduction”.
`O=C(CCc1ccc(O)cc1)c1c(O)cc(O)cc1O[C@@H]1O[C@H](CO)[C@@H](O)[C@H](O)[C@H]1O` [Phloridzin, phloretin 2′-O-glucoside]: the “proliferation of BALB-MC.E12 mouse mammary tumor cells” value in series [5] is recorded as “did not affect the proliferation”. For the same compound, the “decrease of antioxidant activities in comparison to phloretin” value in [6] is recorded as 18 times. Also, in the series on HepG2 cells [7], the apoptotic morphological changes result is “no effect”. Also, the “internucleosomal DNA fragmentation” value with HepG2 cells [2] is listed as “only intact genomic DNA”. Further, the “proliferation of transplanted B16 mouse melanoma cells” value in the series with B16 mouse melanoma cells is “did not affect the proliferation”. Besides, the EC50 in series [8] is greater than 100 µM.

The values are drawn from paper PMC4167698, “Fatty Acid Esters of Phloridzin Induce Apoptosis of Human Liver Cancer Cells through Altered Gene Expression” (PLoS ONE, 2014).
